Source: article PMC3409661 (Radiation research, 2012)
Read-outs that look alike come from different tables or passages of the source.

Experiments:
[1] = tested on: S. typhimurium strain TA100; format: cell-based, Salmonella typhimurium
[2] = tested on: S. typhimurium strain TA98; format: cell-based, Salmonella typhimurium
[3] = Distribution of [14C] PrC-210 topically applied to rat skin; conditions: for Recovery (carcass) / Recovery (skin) = skin (dose site) + skin wash / Recovery (total): 48 h
rat = rat model, 0.5× mouse MTD; cited from earlier work
[4] = pH and disulfide formation of aqueous PrC-210 solutions; format: physicochemical; conditions: for PrC-210 disulfide in solution: aqueous
[5] = cited from earlier work
ICR mice [6] = assay: Mouse aminothiol toxicity assay; format: in vivo
[7] = tested on: diploid human fibroblasts; assay: Human cell growth inhibition; format: cell-based; conditions: PrC-210 in medium for 30 h before cell counting
[8] = tested on: Sprague-Dawley rat dorsal skin; assay: Rat dorsal skin radiodermatitis assay; format: in vivo
p21 = assay: Western blot for p21 expression in nuclear extracts; format: cell-based, human; conditions: 4.1 mM PrC-210 for 30 h vs untreated cells
[9] = tested on: diploid human fibroblasts; assay: Flow cytometry cell-cycle analysis; format: cell-based
ICR mice [10] = assay: Mouse radiation survival assay; format: in vivo
[11] = tested on: supercoiled pUC19 plasmid DNA; assay: Protection of plasmid DNA against ROS-induced nicking; format: biochemical; conditions: PrC-210 0–70 mM added before hydroxyl radical generating system
CHO K1 cells = conditions: reported in one setting; cited from earlier work
ferret = ferret model, 0.5× mouse MTD; cited from earlier work
humans = conditions: cited from earlier work
ICR mice [12] = conditions: known radioprotectors, value quoted for comparison, no reference given; cited from earlier work
[13] = 87 μM (so in the source), positive control
[14] = Group 2: 1850 mM dermal, without norepinephrine
[15] = Group 3: 1850 mM dermal, with 300 mM norepinephrine

Nc1cccc2cc3ccccc3cc12 [Aminoanthracene, reference compound]
Colonies/plate (mean ± SD) Strain TA100 +S9 [1, 13]: 570 ± 90 Colonies/plate
Colonies/plate (mean ± SD) Strain TA98 +S9 [2, 13]: 177 Colonies/plate
Colonies/plate (mean ± SD) Strain TA98 −S9 [2, 13]: >1800 Colonies/plate

CNCC(CS)CNC [PrC-210]
systemic dose after topical application ([3]; 300 g rats, 1.1 mg absorbed, over 48 h (lowest)): 3.7 μg/g BW
estimated mass that crossed the skin barrier and entered systemic circulation ([3]; Group 1, over 48 h (16.28 mg × 6.7%)): 1.1 mg
Cmax (radioactivity in plasma) ([3]; Group 1: 370 mM dermal, 16.28 mg applied): 257 ng-eq/g
Recovery (carcass) ([3]; Group 1: 370 mM dermal): 0.52%
Recovery (skin) = skin (dose site) + skin wash ([3]; Group 1: 370 mM dermal): 41.54%
Recovery (total) ([3]; Group 1: 370 mM dermal): 49.4%
Recovery (carcass) [3, 14]: 1.84%
Recovery (skin) = skin (dose site) + skin wash [3, 14]: 47.16%
Recovery (total) [3, 14]: 66.0%
estimated mass that crossed the skin barrier and entered systemic circulation ([3]; Group 3, over 48 h): 6.8 mg
Cmax (radioactivity in plasma) ([3]; Group 3: 1850 mM dermal, 81.40 mg applied, with 300 mM norepinephrine): 726 ng-eq/g
Recovery (carcass) [3, 15]: 1.53%
Recovery (skin) = skin (dose site) + skin wash [3, 15]: 60.46%
Recovery (total) [3, 15]: 70.0%
share of absorbed radioactivity eliminated by the urine ([3]; after dermal dose): ≥ 90%
transfer of topically applied PrC-210 into systemic circulation ([3]; over 48 h following topical administration, across groups): 6–15%
14C cpm in blood remaining soluble after TCA precipitation ([3]; rat blood samples, preliminary analysis (not shown)): less than 10%
hypotension response (rat): nor hypotension response
pH on dissolution in water ([4]; HCl salt dissolved in water): ~ 3.0
PrC-210 disulfide in solution ([4]; pH 5.5, 1 week at room temperature in the dark): < 1%
PrC-210 disulfide in solution ([4]; pH 8.0, 1 week at room temperature in the dark): > 98%
oral activity [5]: active when taken orally
i.p. MTD (= i.p. LD10 dose) (ICR mice [6]; extrapolated from the best fit curve (Fig. 8A)): 422 μg/g BW
LD10 dose (ICR mice [6]; i.p., probit analysis of percentage survival data): 504 μg/g BW
toxic response (ICR mice [6]; single i.p. 500 μg/g BW): either a transient response in which the mice are sleepy but then rebound over several hours and survive, or they die within 1–2 h
lethality (ICR mice [6]; single i.p. 700 μg/g BW, severe muscle spasm then death within min): 100%
IC70 dose, inhibition of cell growth [7]: 4.1 mM
protection against radiation dermatitis ([8]; 1 to 2 topical applications only): much less protection
prevention of radiation dermatitis ([8]; four topical applications over 2 h before irradiation (Fig. 5F)): 98%
prevention of radiation dermatitis, systemic administration ([8]; i.p. 200 μg/g BW 30 min before 17.3 Gy): complete prevention
radiodermatitis prevention, structure-activity study ([8]; topical 370 mM, thiol plus charged alkyl-amine backbone (Fig. 6)): 100%
protection against radiation dermatitis, aqueous vehicle ([8]; topical 1500 mM in vehicles containing 75% water): still conferred protection
prevention of Grade 2–3 radiation dermatitis by increasing topical doses ([8]; topical application to rat skin before irradiation vs vehicle controls): completely prevented
prevention of Grade 3 radiation dermatitis, topical ([8]; topical, at or above 370 mM, 17.3 Gy, scored 13 days after irradiation): completely prevented
IC100 dose for radiation dermatitis ([8]; topical, vehicle 0:95:5 (ethanol:propylene glycol:water)): 1500 mM
IC100 dose for radiation dermatitis ([8]; topical, vehicle 50:30:20 (ethanol:propylene glycol:water)): 370 mM
p21 protein level in nuclear extracts (p21): significantly elevated
Colonies/plate (mean ± SD) Strain TA100 +S9 ([1]; 30 μM): 119 Colonies/plate
Colonies/plate (mean ± SD) Strain TA100 −S9 ([1]; 30 μM): 121 ± 8 Colonies/plate
Colonies/plate (mean ± SD) Strain TA100 +S9 ([1]; 100 μM): 127 ± 8 Colonies/plate
Colonies/plate (mean ± SD) Strain TA100 −S9 ([1]; 100 μM): 116 ± 22 Colonies/plate
Colonies/plate (mean ± SD) Strain TA100 +S9 ([1]; 400 μM): 144 ± 14 Colonies/plate
Colonies/plate (mean ± SD) Strain TA100 −S9 ([1]; 400 μM): 128 Colonies/plate
Colonies/plate (mean ± SD) Strain TA100 +S9 ([1]; 1000 μM): 148 ± 5 Colonies/plate
Colonies/plate (mean ± SD) Strain TA100 −S9 ([1]; 1000 μM): 101 ± 19 Colonies/plate
Colonies/plate (mean ± SD) Strain TA100 +S9 ([1]; 4100 μM): 115 ± 33 Colonies/plate
Colonies/plate (mean ± SD) Strain TA100 −S9 ([1]; 4100 μM): 134 ± 20 Colonies/plate
Colonies/plate (mean ± SD) Strain TA100 +S9 ([1]; 7000 μM): 149 ± 18 Colonies/plate
Colonies/plate (mean ± SD) Strain TA100 −S9 ([1]; 7000 μM): 128 ± 11 Colonies/plate
mutagenicity: point mutations (strain TA100) ([1]; concentrations up to 7 mM): nor point mutations
S-phase fraction of cells after washout ([9]; 4.1 mM PrC-210 30 h, then washout and fresh medium 48 h): 40%
S-phase fraction of cells ([9]; 4.1 mM PrC-210 for 30 h, control 53%): 8%
type of cell cycle block ([9]; PrC-210-treated normal human fibroblasts): G1/S cell cycle block
dose reduction factor (DRF) (ICR mice [10]; i.p. 211 μg/g BW 30 min before increasing radiation doses, survival to day 35): 1.6
survival (ICR mice [10]; i.p. 211 μg/g BW (0.5× MTD best fit) 30 min before 8.63 Gy whole-body radiation): 98%
survival (ICR mice [10]; i.p. 252 μg/g BW 30 min before 8.75 Gy (otherwise 100% lethal)): 100%
survival (ICR mice [10]; i.p. 252 μg/g BW (0.5× MTD probit) 30 min before 8.63 Gy whole-body radiation): 100%
Colonies/plate (mean ± SD) Strain TA98 −S9 ([2]; 30 μM): 43 ± 2 Colonies/plate
Colonies/plate (mean ± SD) Strain TA98 +S9 ([2]; 100 μM): 64 ± 4 Colonies/plate
Colonies/plate (mean ± SD) Strain TA98 −S9 ([2]; 100 μM): 51 ± 6 Colonies/plate
Colonies/plate (mean ± SD) Strain TA98 +S9 ([2]; 400 μM): 55 ± 3 Colonies/plate
Colonies/plate (mean ± SD) Strain TA98 −S9 ([2]; 400 μM): 58 ± 14 Colonies/plate
Colonies/plate (mean ± SD) Strain TA98 +S9 ([2]; 1000 μM): 54 ± 6 Colonies/plate
Colonies/plate (mean ± SD) Strain TA98 −S9 ([2]; 1000 μM): 53 ± 3 Colonies/plate
Colonies/plate (mean ± SD) Strain TA98 +S9 ([2]; 4100 μM): 55 Colonies/plate
Colonies/plate (mean ± SD) Strain TA98 −S9 ([2]; 4100 μM): 55 ± 5 Colonies/plate
Colonies/plate (mean ± SD) Strain TA98 +S9 ([2]; 7000 μM): 65 ± 9 Colonies/plate
Colonies/plate (mean ± SD) Strain TA98 −S9 ([2]; 7000 μM): 51 ± 5 Colonies/plate
mutagenicity: frameshift mutations (strain TA98) ([2]; concentrations up to 7 mM): neither frameshift mutations
protection of supercoiled plasmid DNA against ROS-induced nicking [11]: complete protection

NCCCNCCS [WR-1065, 2-[(aminopropyl)amino]ethanethiol]
type of cell cycle block (CHO K1 cells): G2/M cell cycle block

NCCCNCCSP(=O)(O)O [amifostine]
retch/vomit response (ferret): elicits both responses
hypotension response (rat): elicits both responses
systemic toxicities (humans; human amifostine use): significant systemic toxicities (nausea/emesis, hypotension/fainting)
efficacy when applied topically to skin or mucosa (humans; humans): has not been effective
dose reduction factor (DRF) (ICR mice [12]): 1.6
